Tests used:
Histone deacetylase 3 = Histone deacetylase 3 (Homo sapiens, UniProt O15379); assay: Inhibition of full length C-terminal His6x-tagged recombinant human HDAC3 expressed in baculovirus using Arg-His-Lys-Lys (Ac) as substrate after 2 hrs by fluorescence plate reader analysis
[1] = target: T1, Protein deacetylase HDAC6 (Homo sapiens, UniProt Q9UBN7); assay: Inhibition of N-terminal GST-tagged recombinant HDAC6 (unknown origin) assessed as deacetylation of Ac-Arg-Gly-Lys (Ac) after 1 hr by fluorescence plate reader analysis in presence of trypsin
T1 sequence (Q9UBN7 whole entry): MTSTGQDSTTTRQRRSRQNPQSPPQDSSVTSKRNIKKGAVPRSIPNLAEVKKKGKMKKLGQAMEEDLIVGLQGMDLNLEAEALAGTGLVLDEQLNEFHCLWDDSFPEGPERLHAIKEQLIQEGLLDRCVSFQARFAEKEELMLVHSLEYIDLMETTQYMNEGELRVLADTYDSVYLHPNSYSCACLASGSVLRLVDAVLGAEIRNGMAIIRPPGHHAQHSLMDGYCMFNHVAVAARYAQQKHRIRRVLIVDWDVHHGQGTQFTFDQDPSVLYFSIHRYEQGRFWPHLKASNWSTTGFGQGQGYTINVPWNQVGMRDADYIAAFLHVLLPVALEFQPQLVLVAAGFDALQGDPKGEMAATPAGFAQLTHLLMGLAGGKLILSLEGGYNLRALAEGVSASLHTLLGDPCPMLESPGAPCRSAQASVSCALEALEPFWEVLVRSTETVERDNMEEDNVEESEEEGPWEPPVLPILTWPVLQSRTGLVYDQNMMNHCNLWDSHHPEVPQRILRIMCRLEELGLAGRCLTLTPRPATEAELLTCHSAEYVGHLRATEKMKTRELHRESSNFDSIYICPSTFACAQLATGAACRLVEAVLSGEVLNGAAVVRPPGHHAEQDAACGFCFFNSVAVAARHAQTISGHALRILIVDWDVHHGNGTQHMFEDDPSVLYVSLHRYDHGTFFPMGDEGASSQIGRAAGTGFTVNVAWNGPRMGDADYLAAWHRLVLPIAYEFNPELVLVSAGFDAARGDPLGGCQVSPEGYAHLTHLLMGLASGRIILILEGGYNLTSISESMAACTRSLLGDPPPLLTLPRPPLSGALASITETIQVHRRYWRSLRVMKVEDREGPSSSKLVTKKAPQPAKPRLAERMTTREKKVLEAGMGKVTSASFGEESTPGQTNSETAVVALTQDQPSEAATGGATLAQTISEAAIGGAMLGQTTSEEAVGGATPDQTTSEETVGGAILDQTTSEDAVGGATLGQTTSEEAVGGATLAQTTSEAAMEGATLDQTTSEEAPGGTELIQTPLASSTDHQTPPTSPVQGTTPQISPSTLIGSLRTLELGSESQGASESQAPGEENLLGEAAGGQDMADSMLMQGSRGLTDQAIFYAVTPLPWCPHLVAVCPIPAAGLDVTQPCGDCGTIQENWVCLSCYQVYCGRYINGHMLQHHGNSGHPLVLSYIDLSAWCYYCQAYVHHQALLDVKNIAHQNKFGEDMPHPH

Histone deacetylase 7 = target: T2, Histone deacetylase 7 (Homo sapiens, UniProt Q8WUI4); assay: Inhibition of N-terminal GST-tagged recombinant human HDAC7 (518) expressed in baculovirus using acetyl-Lys(trifluoroacetyl)-AMC as substrate after 1 hr by fluorescence plate reader analysis
T2 sequence (Q8WUI4 whole entry): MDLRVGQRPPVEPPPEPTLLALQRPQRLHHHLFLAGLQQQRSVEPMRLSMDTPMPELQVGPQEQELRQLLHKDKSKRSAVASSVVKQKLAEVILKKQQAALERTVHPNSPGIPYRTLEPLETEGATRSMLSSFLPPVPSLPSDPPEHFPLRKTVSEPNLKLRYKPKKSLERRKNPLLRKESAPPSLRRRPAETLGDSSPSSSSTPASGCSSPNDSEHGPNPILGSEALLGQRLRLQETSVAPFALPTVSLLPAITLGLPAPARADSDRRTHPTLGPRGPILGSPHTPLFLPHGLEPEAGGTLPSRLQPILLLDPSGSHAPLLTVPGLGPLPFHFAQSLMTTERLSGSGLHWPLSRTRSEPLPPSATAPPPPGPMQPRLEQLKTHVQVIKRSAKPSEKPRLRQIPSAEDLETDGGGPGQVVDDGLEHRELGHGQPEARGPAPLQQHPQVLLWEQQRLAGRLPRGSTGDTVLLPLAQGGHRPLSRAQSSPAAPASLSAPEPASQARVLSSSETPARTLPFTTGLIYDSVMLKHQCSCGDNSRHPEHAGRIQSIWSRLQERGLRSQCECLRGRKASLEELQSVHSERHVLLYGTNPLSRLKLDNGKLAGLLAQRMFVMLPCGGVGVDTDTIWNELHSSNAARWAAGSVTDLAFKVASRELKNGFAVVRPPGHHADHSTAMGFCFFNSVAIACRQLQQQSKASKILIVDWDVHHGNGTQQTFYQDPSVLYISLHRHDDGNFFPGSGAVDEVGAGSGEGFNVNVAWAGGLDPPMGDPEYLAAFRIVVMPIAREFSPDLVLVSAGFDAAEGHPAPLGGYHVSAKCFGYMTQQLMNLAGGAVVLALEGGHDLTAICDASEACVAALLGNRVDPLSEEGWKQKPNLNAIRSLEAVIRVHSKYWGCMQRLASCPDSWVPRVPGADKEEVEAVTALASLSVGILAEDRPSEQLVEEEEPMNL

Sequence of Histone deacetylase 3 (O15379 whole entry): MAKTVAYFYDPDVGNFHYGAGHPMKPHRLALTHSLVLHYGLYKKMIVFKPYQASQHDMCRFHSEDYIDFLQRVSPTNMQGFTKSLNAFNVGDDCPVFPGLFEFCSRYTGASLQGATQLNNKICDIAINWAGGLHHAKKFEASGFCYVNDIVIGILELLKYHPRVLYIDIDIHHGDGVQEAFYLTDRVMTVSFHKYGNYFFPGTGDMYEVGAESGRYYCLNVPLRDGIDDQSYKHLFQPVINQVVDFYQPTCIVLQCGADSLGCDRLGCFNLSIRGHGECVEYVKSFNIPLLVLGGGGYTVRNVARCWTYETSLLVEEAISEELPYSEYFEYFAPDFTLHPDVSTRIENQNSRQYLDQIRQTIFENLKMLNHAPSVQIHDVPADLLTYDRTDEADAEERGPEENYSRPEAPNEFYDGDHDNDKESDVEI

Structure (SMILES) | IC50 (Histone deacetylase 3) [µM] | IC50 [1] [nM] | IC50 (Histone deacetylase 7) [µM]
CC(C)(C)C(=O)N1CCc2cc(C(=O)NO)ccc2C1 | > 50 | 52 | > 50
CC(C)(C)C(=O)N1Cc2ccc(C(=O)NO)cc2C1 | > 50 | 89 | > 50
Cn1cccc1C(=O)N1CCc2cc(C(=O)NO)ccc2C1 | 46 | 36 | > 50
Cn1cccc1C(=O)N1CCCc2cc(C(=O)NO)ccc2C1 | > 50 | 260 | > 50

Now from value to compound:

IC50 (Histone deacetylase 3) [µM] | IC50 [1] [nM] | IC50 (Histone deacetylase 7) [µM] | Structure (SMILES)
> 50 | 40 | > 50 | Cn1cccc1C(=O)N1Cc2ccc(C(=O)NO)cc2C1
4.5 | 19 | 4.6 | Cn1cccc1C(=O)NCc1ccc(C(=O)NO)cc1

From ChEMBL document CHEMBL2429834, “Potent histone deacetylase inhibitors derived from 4-(aminomethyl)-N-hydroxybenzamide with high selectivity for the HDAC6 isoform” (J Med Chem, 2013)
